Patent US20230391845A1, “GLP-1, GIP AND GLUCAGON RECEPTOR TRIPLE AGONISTS” (priority 2020, published 2023)
“Also recorded” adds a separate entry of the source. *1 amine or outer side, *2 acyl side, *3 side chain or, on linkers, in order; H or OH if unused. Where a SMILES comes first, the peptide text is derived from it. Side-chain parts run from the residue outwards. [ ]: non-standard residue; d: D form. The star is where a group is joined. C20 diacid = O=C(O)CCCCCCCCCCCCCCCCCCC(=O)*; γGlu = O=C(O)[C@H](CCC(=O)[*:2])N[*:1]; εLys = N[C@@H](CCCCN[*:1])C(=O)[*:2]; AEEA = NCCOCCOCC(=O)O; Aib = CC(C)(N)C(=O)O

How the values were obtained:
[1] = Pharmacodynamic study in DIO mice, daily s.c. dosing over 13 days (body weight, food intake); format: in vivo, C57BL/6J male mice; conditions: for Absolute BW (grams) Day 0: Day 0 (baseline); for Cumulative food intake (grams) Day 13: mean ± SEM, n = 2; for reduction in body weight (in words) / reduction in food intake (in words): daily s.c. dosing over 13 days, compared to vehicle
Method: (§1) The purpose of this example is to assess the in vivo effect of selected triple agonists on pharmacodynamic parameters in diet-induced obese (DIO) mice. The animals were treated once daily via subcutaneous injection with a liquid formulation of the triple agonist to be tested to assess effects on body weight, foot intake, and glucose tolerance.
(§2) C57BL/6J male mice were purchased from Jackson Laboratories at approximately 8 weeks of age. Mice were group housed and fed a high-fat, high-sugar diet from Research Diets (D12331). Mice were maintained on this diet for 12 weeks prior to initializing the pharmacology studies. Mice exceeding a measured body weight of 50 grams were considered diet-induced obese (DIO) and included in pharmacology studies. Mice were exposed to a controlled 12 h:12 h light:dark cycle at ambient room temperature (22° C.) with ab libitum access to food and water. Studies were approved by and performed according to the guidelines of the Institutional Animal Care and Use Committee of the University of Cincinnati.
(§3) All compounds in the study were formulated in the following buffer: 50 mM phosphate; 70 mM sodium chloride; 0.05% Tween-80, pH 7.4. Dosing solutions were formulated in glass vials and stored at 2-8° C. Dosing solutions were brought to room temperature before dosing and returned to 2-8° C. after dosing.
(§4) The animals were grouped to receive treatment as follows: Vehicle or GLP-1/GIP/Gcg receptor triple agonists as described herein, where vehicle is 50 mM phosphate, 70 mM sodium chloride; 0.05% (v/v) Tween-80, pH 7.4. The test compounds were dissolved in the vehicle, to stock concentrations of […], then diluted 50- to 200-fold in the vehicle to achieve the desired dosing solution concentrations. Animals were dosed subcutaneously once daily in the morning for each day of treatment with dosing solution at a volume of 2-5 μL per gram of body weight as necessary to achieve the desired dose (e.g. 0.3 nmol/kg, 1.0 nmol/kg, or 3.0 nmol/kg).
Body weight (BW) and food intake were measured immediately prior to dosing each day. The percent change in body was calculated individually for each mouse based on initial body weight prior to the first injection.

[2] = molecular target: T1, human GLP-1 receptor (Homo sapiens, UniProt P43220); experiment: In vitro functional potency (CRE luciferase; whole cells), human GLP-1R; format: cell-based
T1 construct: expressed in transfected cells; host or cells: BHK cells (parent line BHKTS13) containing CRE luciferase
Method: The purpose of this example is to test the functional activity, or potency, of the compounds in vitro at the human and mouse GLP-1, GIP, and Gcg receptors. The in vitro functional potency is the measure of target receptor activation in a whole cell assay.
In vitro functional potency was determined by measuring the response of the target receptor in a reporter gene assay in individual cell lines. The assay was performed in stably transfected BHK cell lines that expresses one of the following G-protein coupled receptors: human GLP-1 receptor, human GIP receptor, human Gcg receptor, mouse GLP-1 receptor, mouse GIP receptor, or mouse Gcg receptor; and where each cell line contains the DNA for the cAMP response element (CRE) coupled to a promoter and the gene for firefly luciferase (CRE luciferase). When the respective receptor is activated, it results in the production of cAMP, which in turn results in expression of the luciferase protein. When assay incubation is completed, luciferase substrate (luciferin) is added resulting in the enzymatic conversion of luciferin to oxyluciferin and producing bioluminescence. The luminescence is measured as the readout for the assay.
The cells lines used in these assays were BHK cells with BHKTS13 as a parent cell line. The cell lines were derived from a clone containing the CRE luciferase element and were established by further transfection with the respective receptor to obtain the relevant cell line.
The cells were cultured at 37° C. with 5% CO2 in Cell Culture Medium. They were aliquoted and stored in liquid nitrogen. The cells were kept in continuous culture and were seeded out the day before each assay.
GLP-1R and GcgR Cell Culture Medium consisted of DMEM medium with 10% FBS, 500 µg/mL G418, and 300 µg/mL hygromycin. GIPR Cell Culture Medium consisted of DMEM medium with 10% FBS, 400 µg/mL G418, and 300 µg/mL hygromycin. Assay Buffer consisted of DMEM w/o phenol red, 10 mM Hepes, 1× Glutamax, 1% ovalbumin, and 0.1% Pluronic F-68.
• 1) Cells were plated at 5000 cells/well and incubated overnight in the assay plate. • 2) Cells were washed once in DPBS. • 3) Stocks of the test compounds and reference compounds in concentrations ranging from 100-300 pM were diluted 1:150 in Assay Buffer.
The data from the microtiter plate reader was first regressed in an Excel in order to calculate the x-axis, log scale concentrations based on the individual test compound's stock concentration and the dilutions of the assay. […] The software performs a non-linear regression (log(agonist) vs response). A minimum of two replicates was measured for each sample. The reported values are averages of the replicates.

[3] = IPGTT (intraperitoneal glucose tolerance test) in DIO mice; format: in vivo, C57BL/6J male mice; conditions: for iAUC, IPGTT (min*mg/dL) Day 14: i.p. glucose 2 g/kg, baseline subtracted AUC
Method: as §1, §2, §3
as §4, with “DIO mice were distributed into groups (n=8 per group) such that statistical variations in the mean and standard deviations of fat mass and body weight were minimized between groups. The animals” for “The animals”
On the day of the glucose tolerance test, animals were fasted for 4 h. Food was removed and animals were transferred to fresh cages. Animals had access to water but not to food. Tail blood glucose levels were measured, and mice were injected (t=0) with an intraperitoneal (i.p.) glucose load of 2 g/kg (200 mg/ml glucose solution, dose volume 10 ml/kg). Tail blood glucose levels were measured at times 0, 15, 30, 60, 90, 120 minutes following the i.p. glucose load. Stratification of the animals during the IPGTT was such that for example two mice from group 1 are dosed followed by two mice from group 2, 3, 4, before the next two mice from group 1, 2, 3 etc. were handled. This was to allow for equal distribution of “time of day” throughout all groups.

[4] = Pharmacokinetic study in minipigs, i.v. administration; parameters: species or system Göttingen minipigs; conditions: female, Göttingen, minipig, in vivo, iv; minipigs, i.v. administration, harmonic mean; read-out: Terminal half-life t1/2 (converted)
Method in brief: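 Terminal half-life, reported as harmonic mean, came from non-compartmental fits of plasma levels measured by antibody assay or LCMS over up to 14 days. Dosing was i.v., typically 1.5-2 nmol/kg, through implanted caval catheters in fasted female Göttingen minipigs of 16-35 kg.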

T1 sequence (P43220 24-463): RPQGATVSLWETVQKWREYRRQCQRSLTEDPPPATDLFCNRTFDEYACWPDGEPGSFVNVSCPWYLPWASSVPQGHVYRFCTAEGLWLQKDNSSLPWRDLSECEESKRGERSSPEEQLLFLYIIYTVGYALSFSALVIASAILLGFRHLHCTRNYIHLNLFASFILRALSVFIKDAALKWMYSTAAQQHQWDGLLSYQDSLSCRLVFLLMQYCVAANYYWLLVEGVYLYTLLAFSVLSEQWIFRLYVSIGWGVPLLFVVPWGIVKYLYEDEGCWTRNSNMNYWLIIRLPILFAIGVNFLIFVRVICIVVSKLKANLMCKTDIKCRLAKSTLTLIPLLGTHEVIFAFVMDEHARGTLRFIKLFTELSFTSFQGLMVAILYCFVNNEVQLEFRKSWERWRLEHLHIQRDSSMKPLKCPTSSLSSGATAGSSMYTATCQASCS

Compound	Absolute BW (grams) Day 0 ([1]; 1.0 nmol/kg group)	Absolute BW (grams) Day 13 ([1]; 1.0 nmol/kg s.c. once daily)	Change in BW (%) Day 13 ([1]; 1.0 nmol/kg s.c. once daily)	Cumulative food intake (grams) Day 13 ([1]; 1.0 nmol/kg s.c. once daily)	reduction in body weight (in words) [1]	reduction in food intake (in words) [1]	EC50 [2]	iAUC, IPGTT (min*mg/dL) Day 14 ([3]; 1.0 nmol/kg s.c. once daily)	half-life [4]	Absolute BW (grams) Day 0 ([1]; 0.3 nmol/kg group)	Absolute BW (grams) Day 13 ([1]; 0.3 nmol/kg s.c. once daily)	Change in BW (%) Day 13 ([1]; 0.3 nmol/kg s.c. once daily)	Cumulative food intake (grams) Day 13 ([1]; 0.3 nmol/kg s.c. once daily)	Absolute BW (grams) Day 0 ([1]; 3.0 nmol/kg group)	Absolute BW (grams) Day 13 ([1]; 3.0 nmol/kg s.c. once daily)	Change in BW (%) Day 13 ([1]; 3.0 nmol/kg s.c. once daily)	Cumulative food intake (grams) Day 13 ([1]; 3.0 nmol/kg s.c. once daily)	iAUC, IPGTT (min*mg/dL) Day 14 ([3]; 0.3 nmol/kg s.c. once daily)	glucose tolerance compared to vehicle (in words) ([3]; 1.0 nmol/kg and 3.0 nmol/kg doses)	iAUC, IPGTT (min*mg/dL) Day 14 ([3]; 3.0 nmol/kg s.c. once daily)
CC(C)C[C@H](NC(=O)[C@H](CC(C)C)NC(=O)[C@H](Cc1c[nH]c2ccccc12)NC(=O)[C@H](CCC(N)=O)NC(=O)[C@@H](NC(=O)[C@H](Cc1ccccc1)NC(=O)[C@H](CCC(=O)O)NC(=O)C(C)(C)NC(=O)[C@H](C)NC(=O)[C@H](C)NC(=O)[C@H](CCC(N)=O)NC(=O)[C@H](CCCCNC(=O)[C@@H](N)CCCCNC(=O)[C@@H](N)CCCCNC(=O)CC[C@H](NC(=O)CCCCCCCCCCCCCCCCCCC(=O)O)C(=O)O)NC(=O)[C@H](CCC(=O)O)NC(=O)[C@H](CC(C)C)NC(=O)[C@H](Cc1ccc(O)cc1)NC(=O)[C@H](Cc1ccc(O)cc1)NC(=O)[C@H](CO)NC(=O)[C@H](Cc1ccc(O)cc1)NC(=O)[C@H](CC(=O)O)NC(=O)[C@H](CO)NC(=O)[C@@H](NC(=O)[C@H](Cc1ccccc1)NC(=O)[C@@H](NC(=O)CNC(=O)[C@H](Cc1c[nH]cn1)NC(=O)C(C)(C)NC(=O)[C@@H](N)Cc1c[nH]cn1)[C@@H](C)O)[C@@H](C)O)C(C)C)C(=O)N[C@@H](CCC(=O)O)C(=O)NCC(=O)NCC(=O)N1CCC[C@H]1C(=O)N[C@@H](CO)C(=O)N[C@@H](CO)C(=O)NCC(=O)N[C@@H](C)C(=O)N1CCC[C@H]1C(=O)N1CCC[C@H]1C(=O)N1CCC[C@H]1C(=O)N[C@@H](CO)C(N)=O [Compound No. 26] (H-H[Aib]HGTFTSDYSYYLEK([εLys-εLys-γGlu-C20 diacid])QAA[Aib]EFVQWLLEGGPSSGAPPPS-NH2; N-terminus assumed)	60.7 ± 1.9 grams	51.6 ± 2.2 grams	−15.6 ± 0.9%	20.1 ± 3.4 grams	superior reduction	superior reduction	3.1 pM	8789 ± 1521 mg·min/dL	80 h	–	–	–	–	–	–	–	–	–	–	–
CC[C@H](C)[C@H](NC(=O)[C@H](CO)NC(=O)[C@H](Cc1ccc(O)cc1)NC(=O)[C@H](CC(=O)O)NC(=O)[C@H](CO)NC(=O)[C@@H](NC(=O)[C@H](Cc1ccccc1)NC(=O)[C@@H](NC(=O)CNC(=O)[C@H](Cc1c[nH]cn1)NC(=O)C(C)(C)NC(=O)[C@@H](N)Cc1c[nH]cn1)[C@@H](C)O)[C@@H](C)O)C(=O)N[C@@H](Cc1ccc(O)cc1)C(=O)N[C@@H](CC(C)C)C(=O)N[C@@H](CCC(=O)O)C(=O)N[C@@H](CCCCNC(=O)COCCOCCNC(=O)COCCOCCNC(=O)CC[C@H](NC(=O)CCCCCCCCCCCCCCCCCCC(=O)O)C(=O)O)C(=O)N[C@@H](CCC(N)=O)C(=O)N[C@@H](C)C(=O)N[C@@H](C)C(=O)NC(C)(C)C(=O)N[C@@H](CCC(=O)O)C(=O)N[C@@H](Cc1ccccc1)C(=O)N[C@H](C(=O)N[C@@H](CCC(N)=O)C(=O)N[C@@H](Cc1c[nH]c2ccccc12)C(=O)N[C@@H](CC(C)C)C(=O)N[C@@H](CC(C)C)C(=O)N[C@@H](CCC(=O)O)C(=O)NCC(=O)NCC(=O)N1CCC[C@H]1C(=O)N[C@@H](CO)C(=O)N[C@@H](CO)C(=O)NCC(=O)N[C@@H](C)C(=O)N1CCC[C@H]1C(=O)N1CCC[C@H]1C(=O)N1CCC[C@H]1C(=O)N[C@@H](CO)C(N)=O)C(C)C [Compound No. 44] (H-H[Aib]HGTFTSDYSIYLEK([AEEA-AEEA-γGlu-C20 diacid])QAA[Aib]EFVQWLLEGGPSSGAPPPS-NH2; N-terminus assumed)	60.8 ± 1.1 grams	52.7 ± 1.3 grams	−13.4 ± 0.9%	24.8 ± 1.8 grams	superior reduction; also recorded: dose-dependent effect	superior reduction; also recorded: dose-dependent effect	1.8 pM	14606 ± 2410 mg·min/dL	–	59.2 ± 1.2 grams	56.9 ± 1.5 grams	−3.9 ± 1.1%	28.0 ± 0.6 grams	60.6 ± 1.1 grams	43.1 ± 1.8 grams	−29.1 ± 2.3%	12.4 ± 1.5 grams	25356 ± 4338 mg·min/dL	improved glucose tolerance	15161 ± 2257 mg·min/dL
